From patent US4476299A, “Cyclic polyamino containing compounds having therapeutic effect and the preparation thereof” (priority 1981, dated 1984)
Like-named read-outs stand apart in the source and are kept apart here.

Test system: P-388 cells
Experiment: Antineoplastic action against implanted P-388 tumor, CDF1 mice, i.p.-i.p. (T/C %)
Format: in vivo
Settings: Mus musculus, read-out: T/C %, (Treatment/Control %)
Procedure: In this animal test, the antineoplastic action against the implanted tumor was examined, in lower animals in vivo, in repsect to the compounds according to the present invention, by using CDF1 mice.
To the peritoneal cavity of each group of mice consisting of six CDF1 mice per group, 10^6 /0.1 ml of P-388 cells or 10^5 /0.1 ml of L-1210 cells were implanted. […] While to the control groups of CDF1 mice, P-388 and L-1210 cells were implanted in the same manner and they were bred without administration of the compounds. […]

[1] = ip, Table 6, P388, dose 0.05 mg/kg, i.p.
[2] = ip, Table 6, P388, dose 0.5 mg/kg, i.p.
[3] = ip, Table 6, P388, dose 2 mg/kg, i.p.

| Structure (SMILES) | response vs control in vivo at 0.05 mg/kg (P388, ip) [%] | response vs control in vivo at 0.5 mg/kg (P388, ip) [%] | response vs control in vivo at 2 mg/kg (P388, ip) [%] | response vs control in vivo at 10 mg/kg (P388, ip) [%] | response vs control in vivo at 0.05 mg/kg [1] [%] | response vs control in vivo at 0.5 mg/kg [2] [%] | response vs control in vivo at 2 mg/kg [3] [%] | response vs control in vivo at 4 mg/kg (P388, ip) [%] | response vs control in vivo at 4 mg/kg (ip, Table 6, P388, dose 4 mg/kg, i.p.) [%] |
| --- | --- | --- | --- | --- | --- | --- | --- | --- | --- |
| CCCCC(=O)Oc1ccc2cc1Oc1ccc(cc1)CC1C(=O)N(C)C(C2)C(=O)NC(C)C(=O)NC(C)C(=O)N(C)C(Cc2ccc(OC)cc2)C(=O)NC(C)C(=O)N1C (centres unmarked) [Ex. 27] | 118 | 150 | 158 | 172 |  |  |  |  |  |
| CCOc1ccc2cc1Oc1ccc(cc1)CC1C(=O)N(C)C(C2)C(=O)NC(C)C(=O)NC(C)C(=O)N(C)C(Cc2ccc(OC)cc2)C(=O)NC(C)C(=O)N1C (centres unmarked) [Ex. 3] | 137 | 165 | 162 |  |  |  |  |  |  |
| CCC=CCC(=O)Oc1ccc2cc1Oc1ccc(cc1)CC1C(=O)N(C)C(C2)C(=O)NC(C)C(=O)NC(C)C(=O)N(C)C(Cc2ccc(OC)cc2)C(=O)NC(C)C(=O)N1C (centres unmarked) [Ex. 45] |  |  |  |  | 122 | 145 | 162 |  |  |
| COc1ccc(CC2C(=O)NC(C)C(=O)N(C)C3Cc4ccc(cc4)Oc4cc(ccc4OC4CCCCO4)CC(C(=O)NC(C)C(=O)NC(C)C(=O)N2C)N(C)C3=O)cc1 (centres unmarked) [Ex. 20, tetrahydropyranylether of TPC-A] | 138 | 164 | 121 |  |  |  |  |  |  |
| CCCC(=O)Oc1ccc2cc1Oc1ccc(cc1)CC1C(=O)N(C)C(C2)C(=O)NC(C)C(=O)NC(C)C(=O)N(C)C(Cc2ccc(OC)cc2)C(=O)NC(C)C(=O)N1C (centres unmarked) [Ex. 24] | 125 | 144 | 156 | 170 |  |  |  |  |  |
| COc1ccc(CC2C(=O)NC(C)C(=O)N(C)C3Cc4ccc(cc4)Oc4cc(ccc4OC(C)C)CC(C(=O)NC(C)C(=O)NC(C)C(=O)N2C)N(C)C3=O)cc1 (centres unmarked) [Ex. 5] | 142 | 175 | 105 |  |  |  |  |  |  |
| COc1ccc(CC2C(=O)NC(C)C(=O)N(C)C3Cc4ccc(cc4)Oc4cc(ccc4OC4CCCCC4)CC(C(=O)NC(C)C(=O)NC(C)C(=O)N2C)N(C)C3=O)cc1 (centres unmarked) [Ex. 16] | 126 | 162 | 164 |  |  |  |  |  |  |
| CCC(C)CC(=O)Oc1ccc2cc1Oc1ccc(cc1)CC1C(=O)N(C)C(C2)C(=O)NC(C)C(=O)NC(C)C(=O)N(C)C(Cc2ccc(OC)cc2)C(=O)NC(C)C(=O)N1C (centres unmarked) [Ex. 42] | 115 | 140 | 159 |  |  |  |  |  |  |
| CCCCCCCC(=O)Oc1ccc2cc1Oc1ccc(cc1)CC1C(=O)N(C)C(C2)C(=O)NC(C)C(=O)NC(C)C(=O)N(C)C(Cc2ccc(OC)cc2)C(=O)NC(C)C(=O)N1C (centres unmarked) [Ex. 29] | 127 | 147 | 167 | 169 |  |  |  |  |  |
| COc1ccc(CC2C(=O)NC(C)C(=O)N(C)C3Cc4ccc(cc4)Oc4cc(ccc4OC(=O)CCC(C)C)CC(C(=O)NC(C)C(=O)NC(C)C(=O)N2C)N(C)C3=O)cc1 (centres unmarked) [Ex. 40, 4-methyl valerate] | 112 | 134 | 152 |  |  |  |  |  |  |
| CCCC=CC(=O)Oc1ccc2cc1Oc1ccc(cc1)CC1C(=O)N(C)C(C2)C(=O)NC(C)C(=O)NC(C)C(=O)N(C)C(Cc2ccc(OC)cc2)C(=O)NC(C)C(=O)N1C (centres unmarked) [Ex. 44] | 117 | 150 | 165 |  |  |  |  |  |  |
| CCCCCCC(=O)Oc1ccc2cc1Oc1ccc(cc1)CC1C(=O)N(C)C(C2)C(=O)NC(C)C(=O)NC(C)C(=O)N(C)C(Cc2ccc(OC)cc2)C(=O)NC(C)C(=O)N1C (centres unmarked) [Ex. 28] | 114 | 144 | 150 |  |  |  |  |  |  |
| CCCC(C)C(=O)Oc1ccc2cc1Oc1ccc(cc1)CC1C(=O)N(C)C(C2)C(=O)NC(C)C(=O)NC(C)C(=O)N(C)C(Cc2ccc(OC)cc2)C(=O)NC(C)C(=O)N1C (centres unmarked) [Ex. 43] | 117 | 142 | 154 |  |  |  |  |  |  |
| CCCCCCCCOc1ccc2cc1Oc1ccc(cc1)CC1C(=O)N(C)C(C2)C(=O)NC(C)C(=O)NC(C)C(=O)N(C)C(Cc2ccc(OC)cc2)C(=O)NC(C)C(=O)N1C (centres unmarked) [Ex. 9] | 136 | 147 | 163 |  |  |  |  | 152 |  |
| CCC(=O)Oc1ccc2cc1Oc1ccc(cc1)CC1C(=O)N(C)C(C2)C(=O)NC(C)C(=O)NC(C)C(=O)N(C)C(Cc2ccc(OC)cc2)C(=O)NC(C)C(=O)N1C (centres unmarked) [Ex. 23] | 129 | 145 | 164 | 175 |  |  |  |  |  |
| CCCCCOc1ccc2cc1Oc1ccc(cc1)CC1C(=O)N(C)C(C2)C(=O)NC(C)C(=O)NC(C)C(=O)N(C)C(Cc2ccc(OC)cc2)C(=O)NC(C)C(=O)N1C (centres unmarked) [Ex. 7] | 122 | 143 | 165 |  |  |  |  |  |  |
| COc1ccc(CC2C(=O)NC(C)C(=O)N(C)C3Cc4ccc(cc4)Oc4cc(ccc4OC(=O)C(C)C)CC(C(=O)NC(C)C(=O)NC(C)C(=O)N2C)N(C)C3=O)cc1 (centres unmarked) [Ex. 25] | 124 | 151 | 156 | 184 |  |  |  |  |  |
| COc1ccc(CC2C(=O)NC(C)C(=O)N(C)C3Cc4ccc(cc4)Oc4cc(ccc4OC(=O)c4ccccc4)CC(C(=O)NC(C)C(=O)NC(C)C(=O)N2C)N(C)C3=O)cc1 (centres unmarked) [Ex. 32] | 128 | 186 | 176 | 183 |  |  |  |  |  |
| CC=CC(=O)Oc1ccc2cc1Oc1ccc(cc1)CC1C(=O)N(C)C(C2)C(=O)NC(C)C(=O)NC(C)C(=O)N(C)C(Cc2ccc(OC)cc2)C(=O)NC(C)C(=O)N1C (centres unmarked) [Ex. 26] | 124 | 148 | 162 | 187 |  |  |  |  |  |
| COc1ccc(CC2C(=O)NC(C)C(=O)N(C)C3Cc4ccc(cc4)Oc4cc(ccc4OC(=O)Cc4ccccc4)CC(C(=O)NC(C)C(=O)NC(C)C(=O)N2C)N(C)C3=O)cc1 (centres unmarked) [Ex. 41] |  |  |  |  | 118 | 147 | 159 |  |  |
| CCOC(=O)CCCOc1ccc2cc1Oc1ccc(cc1)CC1C(=O)N(C)C(C2)C(=O)NC(C)C(=O)NC(C)C(=O)N(C)C(Cc2ccc(OC)cc2)C(=O)NC(C)C(=O)N1C (centres unmarked) [Ex. 19(2), ethoxycarbonylpropylether (2) of TPC-A] | 114 | 140 | 142 |  |  |  |  | 153 |  |
| CCCCCCCCCOc1ccc2cc1Oc1ccc(cc1)CC1C(=O)N(C)C(C2)C(=O)NC(C)C(=O)NC(C)C(=O)N(C)C(Cc2ccc(OC)cc2)C(=O)NC(C)C(=O)N1C (centres unmarked) [Ex. 10] |  |  |  |  | 112 | 142 | 150 |  | 155 |
| CCCCCCCOc1ccc2cc1Oc1ccc(cc1)CC1C(=O)N(C)C(C2)C(=O)NC(C)C(=O)NC(C)C(=O)N(C)C(Cc2ccc(OC)cc2)C(=O)NC(C)C(=O)N1C (centres unmarked) [Ex. 8] | 116 | 145 | 150 |  |  |  |  | 164 |  |
